Data on 11 compounds can be found in ChEMBL document CHEMBL1201862, “PubChem BioAssay data set” (2004).

As a reminder, the GI50 is the concentration giving 50% growth inhibition.

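How tested: cells in 96-well plates exposed to compound for 48 hours at five concentrations. GI50: concentration for 50% inhibition of growth.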 Active and inactive are the calls of the source. Cut-off read from the data, not from the text of the source: active = GI50 up to about 1.1 µM and inactive = higher.

Common to all, as to experiment: DTP human tumour cell line panel, 48 h
In assay [1] the test system is BT-549.
Assay [2] deals with CCRF-CEM.
Assay [3] deals with HCT-15.
Assay [4] deals with M14.
Assay [5] has as its system MDA-MB-435.
Assay [6] relates to MOLT-4.
Assay [7] deals with Malme-3M.
The subject of assay [8] is NCI-H23.
The test system of assay [9] is NCI-H460.
In assay [10] the test system is RXF 393.
In assay [11] the test system is SF-268.
In assay [12] the test system is SK-MEL-2.
For assay [13], the system named is SK-OV-3.
The subject of assay [14] is SW-620.
For assay [15], the system named is T47D.
The subject of assay [16] is U-251.
Assay [17] has as its system UACC-257.
The test system of assay [18] is UACC-62.
The subject of assay [19] is SF-539.
The test system of assay [20] is HL-60.

In the case of `Cc1ccc(/N=N/C(=N/NC(=O)c2cc(Cl)ccc2C(=O)c2ccccc2)c2ccc(N(CCC#N)CCC#N)cc2C)cc1`, the GI50 is 15.4 µM (inactive) in [1]; 3.17 µM (inactive) in assay [2]; 7.55 µM in [3]; 11.8 µM (inactive) in assay [4]; 18.7 µM (inactive) in assay [5]; 4.99 µM (inactive) in assay [6]. In addition, the GI50 in [7] is 15.7 µM (inactive); in assay [8] it was 21.8 µM (inactive); in [9], 2.41 µM (inactive); in [10], 0.0957 µM (active); in assay [11], 10.8 µM (inactive); in [12], 1.34 µM (inactive). The GI50 is 8.09 µM (inactive) in [13]; 21.2 µM (inactive) in [14]; 3.81 µM (inactive) in [15]; 8.02 µM (inactive) in [16]; 15.9 µM (inactive) in assay [17]; 12.9 µM (inactive) in assay [18].
Regarding `NC(=O)c1csc(C2(O)COC(CO)C2O)n1` (stereo unspecified), the GI50 is > 100 µM (inactive) in assay [1]; > 100 µM (inactive) in assay [2]; above 100 µM in [3]; > 100 µM (inactive) in assay [4]; > 100 µM (inactive) in assay [5]; > 100 µM (inactive) in [7]. Further, the GI50 in assay [8], in [9], in [10], in assay [11], in [19] and in [12] was > 100 µM (inactive) in each case. In addition, the GI50 in assay [13], in assay [14], in [15], in assay [16], in assay [17] and in assay [18] was > 100 µM (inactive) each time.
In the case of `C=C[C@]1(O[Si](C)(C)C)C[C@@]2(C(=O)OCC)C(O)C(=O)N3CCc4cc(OC)c(OC)cc4[C@]312` (stereo partly specified), the GI50 in assay [1] is > 100 µM (inactive); in assay [2], > 100 µM (inactive); in [3], above 100 µM; in assay [4] it was > 100 µM (inactive); in assay [5], > 100 µM (inactive); in assay [6], > 100 µM (inactive). Moreover, the GI50 in [7], in assay [8], in [9], in [10], in assay [11] and in assay [19] was > 100 µM (inactive) throughout. For the same compound, the GI50 in [12], in assay [13], in assay [14], in assay [15], in assay [16] and in assay [17] was > 100 µM (inactive) each time. In addition, in assay [18], the GI50 was 21.4 µM (inactive).
Consider `COC(=O)c1nc(-c2nc(CCNC(=O)OC(C)(C)C)sc2Cl)sc1Cl`, for which the GI50 was 34.5 µM (inactive) in [1]; 32.2 µM (inactive) in assay [2]; 36.3 µM in assay [3]; 71.9 µM (inactive) in assay [20]; 32.1 µM (inactive) in [4]; 92 µM (inactive) in assay [5]. The GI50 in assay [6] was 23.8 µM (inactive); in assay [7], 66.8 µM (inactive); in [8], 44.7 µM (inactive); in assay [9], > 100 µM (inactive); in assay [10], > 100 µM (inactive); in [11] it was 74.6 µM (inactive). For the same compound, the GI50 in assay [19] was > 100 µM (inactive); in assay [13], > 100 µM (inactive); in assay [14], > 100 µM (inactive); in [16], > 100 µM (inactive); in assay [17], > 100 µM (inactive); in assay [18], 35.3 µM (inactive).
For the compound `N/C(=N\O)N/N=C/c1cc(Br)cc(Br)c1O`, the GI50 was 2.44 µM (inactive) in assay [1]; 0.491 µM (active) in assay [2]; 0.67 µM in [3]; 2.43 µM (inactive) in [4]; 9.48 µM (inactive) in assay [5]; 1.12 µM (active) in assay [6]. The GI50 in [7] is 2.96 µM (inactive); in assay [8], 7.06 µM (inactive); in assay [9] it was 3.32 µM (inactive); in assay [10], 4.32 µM (inactive); in assay [11], 1.75 µM (inactive); in assay [19], 4.49 µM (inactive). The GI50 in assay [12] was 8.04 µM (inactive); in [13], 7.14 µM (inactive); in assay [14], 8.95 µM (inactive); in assay [15], 1.75 µM (inactive); in assay [16], 2.78 µM (inactive); in assay [17] it was 14 µM (inactive). For the same compound, the GI50 in assay [18] was 1.46 µM (inactive).
For the compound `O=C1CC(O)c2c1csc2Br` (stereo unspecified), the GI50 is 23.2 µM (inactive) in assay [1]; 25.2 µM (inactive) in assay [2]; 18.5 µM in assay [3]; 18.2 µM (inactive) in assay [4]; 18.8 µM (inactive) in assay [5]; 20.3 µM (inactive) in [6]. For the same compound, the GI50 in assay [7] was 30.8 µM (inactive); in assay [8], 21.9 µM (inactive); in assay [9] it was 25.7 µM (inactive); in [10], 17.3 µM (inactive); in assay [11], 27.4 µM (inactive); in assay [12], 34.2 µM (inactive). Also, the GI50 in assay [13] was 53.8 µM (inactive); in [14] it was 15.3 µM (inactive); in assay [15], 23.7 µM (inactive); in [16], 19.8 µM (inactive); in assay [17], 10.7 µM (inactive); in [18] it was 22.7 µM (inactive).
For the compound `O=c1onc2c3ccccc3ncn12`, the GI50 in assay [1] is > 100 µM (inactive); in [2], > 100 µM (inactive); in assay [3] it was above 100 µM; in assay [4], > 100 µM (inactive); in [5], > 100 µM (inactive); in assay [6], > 100 µM (inactive). In addition, the GI50 in [8], in assay [10], in assay [11], in assay [19], in assay [12] and in assay [13] was > 100 µM (inactive) each time. Further, the GI50 in assay [14], in assay [15], in assay [16], in [17] and in assay [18] was > 100 µM (inactive) each time.
In the case of `CCN(CC)CCNC(=O)c1cc2cc(NC(=O)c3cc4cc(NC(=O)c5cc6cc([N+](=O)[O-])ccc6[nH]5)ccc4[nH]3)ccc2[nH]1`, the GI50 in assay [1] is > 100 µM (inactive); in assay [2], 10.6 µM (inactive); in [3] it was above 100 µM; in assay [4], > 100 µM (inactive); in assay [5], > 100 µM (inactive); in [6], < 0.01 µM (active). For the same compound, the GI50 in assay [7], in assay [8], in [9], in assay [10], in assay [11] and in assay [12] was > 100 µM (inactive) each time. Moreover, the GI50 in assay [13], in assay [14], in assay [15], in assay [16], in assay [17] and in [18] was > 100 µM (inactive) each time.
Take `COc1ccc(/C=C(\NC(=O)c2ccccc2)C(=O)NN(C)c2ccnc3cc(Cl)ccc23)cc1OC`: the GI50 was 20.4 µM (inactive) in [1]; 24.7 µM in assay [3]; 22.6 µM (inactive) in assay [4]; 21.3 µM (inactive) in assay [5]; 18.2 µM (inactive) in assay [6]; 26.1 µM (inactive) in assay [7]. Moreover, the GI50 is 24 µM (inactive) in assay [8]; 19 µM (inactive) in assay [9]; 18.9 µM (inactive) in assay [10]; 18.5 µM (inactive) in assay [11]; 21.5 µM (inactive) in assay [19]; 21.3 µM (inactive) in assay [12]. For the same compound, the GI50 in assay [13] was > 100 µM (inactive); in [14] it was 22.1 µM (inactive); in [15], 30.4 µM (inactive); in assay [16], 19.7 µM (inactive); in assay [17] it was 26.4 µM (inactive).
Turning to `NC(=O)NCCSC1CCCCC1O` (stereo unspecified), the GI50 in assay [1] was > 100 µM (inactive); in [3], above 100 µM; in [4], > 100 µM (inactive); in assay [5], > 100 µM (inactive); in assay [6], 26.2 µM (inactive); in assay [7], > 100 µM (inactive). Further, the GI50 in assay [8], in [9], in assay [10], in [11], in assay [19] and in [12] was > 100 µM (inactive) each time. The GI50 in assay [13], in assay [14], in assay [15], in assay [16], in [17] and in [18] was > 100 µM (inactive) in each case.
As for `O=C1CCCC1CC(CN1CCOCC1)Sc1nnnn1-c1ccccc1` (stereo unspecified), the GI50 is > 100 µM (inactive) in [1]; > 100 µM (inactive) in [2]; 16.7 µM (inactive) in assay [20]; > 100 µM (inactive) in assay [4]; > 100 µM (inactive) in assay [5]; > 100 µM (inactive) in assay [6]. Besides, the GI50 in [7] was > 100 µM (inactive); in [8], > 100 µM (inactive); in assay [10] it was 34.6 µM (inactive); in [19], > 100 µM (inactive); in assay [12] it was > 100 µM (inactive); in [13] it was > 100 µM (inactive). The GI50 in assay [14], in assay [16], in assay [17] and in assay [18] was > 100 µM (inactive) throughout.
